Type in all cases: biochemical
The target of assay [1] is T1, PRMT4 (Homo sapiens, UniProt Q86X55).
T1 sequence (Q86X55 1-608): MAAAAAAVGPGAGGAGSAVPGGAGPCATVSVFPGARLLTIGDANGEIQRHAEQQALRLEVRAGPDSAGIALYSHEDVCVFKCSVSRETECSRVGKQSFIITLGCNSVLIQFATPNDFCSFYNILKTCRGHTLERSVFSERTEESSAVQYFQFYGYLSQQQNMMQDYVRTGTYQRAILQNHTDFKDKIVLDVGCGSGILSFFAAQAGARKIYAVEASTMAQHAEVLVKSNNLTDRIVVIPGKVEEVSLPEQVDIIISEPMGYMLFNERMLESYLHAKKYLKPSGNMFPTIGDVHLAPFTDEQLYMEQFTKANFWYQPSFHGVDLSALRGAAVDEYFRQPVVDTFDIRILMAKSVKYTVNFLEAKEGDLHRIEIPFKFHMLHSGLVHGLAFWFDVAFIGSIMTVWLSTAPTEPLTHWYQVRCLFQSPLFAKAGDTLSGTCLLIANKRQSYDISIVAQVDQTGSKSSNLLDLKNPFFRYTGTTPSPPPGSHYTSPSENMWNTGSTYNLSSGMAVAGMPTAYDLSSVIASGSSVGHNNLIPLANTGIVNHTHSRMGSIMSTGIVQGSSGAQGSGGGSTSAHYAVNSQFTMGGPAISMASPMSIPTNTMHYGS
Put plainly: radioactive assay (Reaction Biology Corp.), inhibition of PRMT4. The protocol: (§1) Next, the inhibition activity of the library was investigated for five PRMT members from type I PRMTs.
(§2) The PRMT 4, 6 and 8 methylation assays were performed by Reaction Biology corp.

Assay [2] relates to PRMT4. The assay is described as above. The protocol:
as §1, §2

The target of assay [3] is PRMT6 (Homo sapiens, UniProt Q96LA8). In words: radioactive assay (Reaction Biology Corp.), inhibition of PRMT6. On the procedure:
as §1, §2

For assay [4], the target named is PRMT3 (Homo sapiens, UniProt O60678). In words: SAHH-coupled fluorescence assay, inhibition of PRMT3. Also noted: PRMT3 (residues 211-531) was cloned into the pET28a-MHL expression vector; tag of the pET28a-MHL vector (not described); made in house; host or cells: Escherichia coli BL21(DE3). A digest of the protocol: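 Coupled SAHH/ThioGlo4 fluorescence read-out (ex 380 nm, em 505 nm) of PRMT3 (0.25 μM) methylation with 30 μM AdoMet and 5 μM SAHH. Buffer was 20 mM Tris pH 7.5 with 0.01% Triton X-100. Run in duplicate.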

Assay [5] concerns the target T2, PRMT1 (Homo sapiens, UniProt Q99873).
T2 construct: made in house
Put plainly: SAHH-coupled fluorescence assay, inhibition of PRMT1. The settings on record: for IC50: read-out: IC50[μM] | PRMT1. A digest of the protocol:
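PRMT1 (0.1 μM) was run with 10 μM AdoMet, 5 μM SAHH and 10 μM ThioGlo4 in 2.5 mM HEPES pH 7.0, 25 mM NaCl, 25 μM EDTA, 50 μM TCEP and 0.01% Triton X-100. Fluorescence (ex 400/em 465 nm) was monitored for 15 min. Assays were done in duplicate.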

Assay [6] deals with PRMT8 (Homo sapiens, UniProt Q9NR22). Put plainly: radioactive assay (Reaction Biology Corp.), inhibition of PRMT8. On the procedure: as §1, §2
The test system of assay [7] is PRMT3. Put plainly: SAHH-coupled fluorescence assay, inhibition of PRMT3. On the procedure:
A fluorescence-based SAHH-coupled assay was applied to study the inhibition activity of all synthesized compounds on PRMT 1 and 3.
The PRMT3 methylation assay was performed under the following conditions in a final well volume of 100 μL: 20 mM Tris (pH=7.5), 0.01% Triton X-100, 5 μM SAHH, 0.25 μM PRMT3, 30 μM AdoMet, and 15 μM ThioGlo4. […] Fluorescence was monitored on a BMG CLARIOstar microplate reader with excitation 380 nm and emission 505 nm. Data were processed by using GraphPad Prism software 8.0. All experiments were performed in duplicate.
as §1
The PRMT3 methylation assay was performed under the following conditions in a final well volume of 100 μL: 20 mM Tris (pH=7.5), 0.01% Triton X-100, 5 μM SAHH, 0.25 μM PRMT3, 30 μM AdoMet, and 15 μM ThioGlo4. […] Fluorescence was monitored on a BMG CLARIOstar microplate reader with excitation 380 nm and emission 505 nm. Data were processed by using GraphPad Prism software 8.0.

Each structure is given as a SMILES string. Like-named read-outs stand apart in the source and are kept apart here.

Broadly, the inhibition is the drop in the measured response relative to a control, in per cent. What is called IC50 is the concentration that gives 50% inhibition.

T2 sequence (Q99873 whole entry, species assumed): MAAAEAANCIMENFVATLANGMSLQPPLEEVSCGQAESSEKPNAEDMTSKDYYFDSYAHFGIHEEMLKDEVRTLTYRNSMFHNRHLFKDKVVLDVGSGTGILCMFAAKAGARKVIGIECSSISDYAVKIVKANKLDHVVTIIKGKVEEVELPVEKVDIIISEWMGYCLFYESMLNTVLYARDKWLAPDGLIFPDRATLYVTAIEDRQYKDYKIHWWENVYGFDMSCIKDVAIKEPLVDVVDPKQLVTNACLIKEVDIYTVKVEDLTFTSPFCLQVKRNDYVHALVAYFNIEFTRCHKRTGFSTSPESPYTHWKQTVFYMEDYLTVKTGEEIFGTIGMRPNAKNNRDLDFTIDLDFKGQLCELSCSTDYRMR
PRMT3 (Homo sapiens, UniProt O60678), sequence (O60678 211-531): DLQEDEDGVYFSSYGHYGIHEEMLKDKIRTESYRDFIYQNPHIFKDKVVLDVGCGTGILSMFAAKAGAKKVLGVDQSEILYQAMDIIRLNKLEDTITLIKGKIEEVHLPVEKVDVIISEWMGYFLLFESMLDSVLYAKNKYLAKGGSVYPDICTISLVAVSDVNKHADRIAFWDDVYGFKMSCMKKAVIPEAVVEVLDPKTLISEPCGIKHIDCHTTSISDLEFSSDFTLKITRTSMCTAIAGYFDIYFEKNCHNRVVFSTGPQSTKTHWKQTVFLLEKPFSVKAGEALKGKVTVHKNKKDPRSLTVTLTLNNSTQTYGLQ
PRMT6, sequence (Q96LA8 whole entry, species assumed): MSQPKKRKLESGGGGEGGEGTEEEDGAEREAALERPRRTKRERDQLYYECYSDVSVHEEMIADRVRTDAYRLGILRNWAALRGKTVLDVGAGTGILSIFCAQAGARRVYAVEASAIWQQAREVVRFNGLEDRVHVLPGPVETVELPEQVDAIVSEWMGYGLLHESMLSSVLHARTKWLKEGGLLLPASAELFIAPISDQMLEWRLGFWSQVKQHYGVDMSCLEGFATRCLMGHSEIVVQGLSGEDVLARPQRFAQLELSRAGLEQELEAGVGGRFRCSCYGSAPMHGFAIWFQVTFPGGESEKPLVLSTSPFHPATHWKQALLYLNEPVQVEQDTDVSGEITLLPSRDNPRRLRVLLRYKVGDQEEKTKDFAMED
PRMT8, sequence (Q9NR22 whole entry, species assumed): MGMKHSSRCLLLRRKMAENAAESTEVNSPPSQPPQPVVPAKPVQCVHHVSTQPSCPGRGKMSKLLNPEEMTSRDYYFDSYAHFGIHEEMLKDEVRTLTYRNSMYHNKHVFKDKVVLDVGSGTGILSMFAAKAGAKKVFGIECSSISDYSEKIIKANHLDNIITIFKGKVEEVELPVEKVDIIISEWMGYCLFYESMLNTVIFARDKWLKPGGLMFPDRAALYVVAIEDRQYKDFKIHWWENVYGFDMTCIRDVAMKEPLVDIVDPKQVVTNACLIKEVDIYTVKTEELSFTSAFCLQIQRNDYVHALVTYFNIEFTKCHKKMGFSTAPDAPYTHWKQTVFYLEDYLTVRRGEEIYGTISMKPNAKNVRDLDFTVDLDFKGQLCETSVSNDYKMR

`Nc1ncnc2c1ncn2[C@@H]1O[C@H](CSCCCNCc2cccc(-c3cncnc3)c2)[C@@H](O)[C@H]1O` [Compound 10s]: the inhibition at 10 µM in assay [1] amounted to 97%; in assay [3] it was 65%; in assay [4], 24%; in assay [5] it was 28%; in assay [6] it was 39%. In addition, the IC50 in assay [2] stood at 49 ± 5.7 µM.

`Nc1ncnc2c1ncn2[C@@H]1O[C@H](CSCCCNC(=O)NCc2ccccc2)[C@@H](O)[C@H]1O` [Compound 7p, 1-(3-((((2S,3S,4R,5R)-5-(6-amino-9H-purin-9-yl)-3,4-dihydroxytetrahydrofuran-2-yl)methyl)thio)propyl)-3-benzylurea]: the inhibition at 10 µM was determined as 76% in assay [1]; 67% in assay [3]; 13% in assay [4]; 7% in assay [5]; 12% in assay [6]. Besides, the values for the IC50 in assay [2] and in assay [7] (read-out: IC50 [µM] | PRMT3) were 3.6 ± 0.42 µM and 70 ± 11 µM, respectively. The inhibition at 70 µM in assay [4] (70 μM) is 50%.

On to `Nc1ncnc2c1ncn2[C@@H]1O[C@H](CSCCNC(=O)Nc2cccc3ccccc23)[C@@H](O)[C@H]1O` [Compound 7l, 1-(2-((((2S,3S,4R,5R)-5-(6-amino-9H-purin-9-yl)-3,4-dihydroxytetrahydrofuran-2-yl)methyl)thio)ethyl)-3-(naphthalen-1-yl)urea], for which the inhibition at 10 µM in assay [1] turned out to be 88%; in assay [3], 2%; in assay [4], 1%; in assay [5] it was 13%; in assay [6] it was 5%. The IC50 in assay [2] was found to be 0.47 ± 0.12 µM; in assay [7] (read-out: IC50 [µM] | PRMT3), 81 ± 17 µM. Also, the “fold reduction of PRMT3 inhibition vs 1h” value in assay [4] (vs phenyl (1h)) is on record as “over 40 fold”.

Take `Nc1ncnc2c1ncn2[C@@H]1O[C@H](CSCCNC(=O)Nc2ccc(Cl)cc2)[C@@H](O)[C@H]1O` [Compound 7k, 1-(2-((((2S,3S,4R,5R)-5-(6-amino-9H-purin-9-yl)-3,4-dihydroxytetrahydrofuran-2-yl)methyl)thio)ethyl)-3-(4-chlorophenyl)urea]: the inhibition at 10 µM in assay [1] is 67%; in assay [3], 2%; in assay [4], 30%; in assay [5], 7%; in assay [6] it was -1%. Also, in assay [4] (vs 1i), the “fold reduction of PRMT3 inhibition vs 1i” value is 10 fold. In assay [7] (read-out: IC50 [µM] | PRMT3), the IC50 turned out to be 22 ± 2.9 µM.

Consider `N=C(NCCCSC[C@H]1O[C@@H](n2cnc3c(N)ncnc32)[C@H](O)[C@@H]1O)Nc1cccc(-c2cccnc2)c1` [Compound 6m], for which the inhibition at 10 µM in assay [1] is 100%; in assay [3] it was 93%; in assay [4], 22%; in assay [5] it was 88%; in assay [6], 96%. Further, the IC50 in assay [7] (read-out: IC50[μM] | PRMT3) amounted to 14 ± 3.1 µM; in assay [5], 0.9 ± 0.17 µM.

On to `N=C(NCCCSC[C@H]1O[C@@H](n2cnc3c(N)ncnc32)[C@H](O)[C@@H]1O)Nc1cccc(-c2ccc(F)cc2F)c1` [Compound 6k], for which the inhibition at 10 µM in assay [1] was determined as 100%; in assay [3], 96%; in assay [4], 50%; in assay [5], 97%; in assay [6], 99%. The IC50 in assay [7] (read-out: IC50[μM] | PRMT3) is 6.6 ± 2.8 µM; in assay [5], 0.33 ± 0.072 µM.

In the case of `N=C(NCCCSC[C@H]1O[C@@H](n2cnc3c(N)ncnc32)[C@H](O)[C@@H]1O)Nc1ccccc1` [Compound 5d], the inhibition at 10 µM in assay [1] was 99%; in assay [3], 99%; in assay [4], 54%; in assay [5] it was 94%; in assay [6] it was 98%. In addition, the IC50 in assay [7] (read-out: IC50[μM] | PRMT3) amounted to 7.2 ± 0.61 µM; in assay [5], 0.17 ± 0.011 µM.

As for `Nc1ncnc2c1ncn2[C@@H]1O[C@H](CSCCNCc2cccc(-c3ccoc3)c2)[C@@H](O)[C@H]1O` [Compound 10d], the inhibition at 10 µM in assay [1] was determined as 100%; in assay [3], 46%; in assay [4], 1%; in assay [5], 14%; in assay [6], 44%. For the same compound, the IC50 in assay [2] stood at 1.2 ± 0.18 µM.

Take `N=C(NCCSC[C@H]1O[C@@H](n2cnc3c(N)ncnc32)[C@H](O)[C@@H]1O)Nc1cccc(-c2cccc(F)c2)c1` [Compound 6d]: the inhibition at 10 µM in assay [1] amounted to 100%; in assay [3], 67%; in assay [4], 26%; in assay [5], 68%; in assay [6] it was 81%. Moreover, the IC50 in assay [7] (read-out: IC50[μM] | PRMT3) was found to be 18 ± 2.1 µM; in assay [5], 4.9 ± 0.11 µM.

Turning to `N=C(NCCCSC[C@H]1O[C@@H](n2cnc3c(N)ncnc32)[C@H](O)[C@@H]1O)Nc1cccc(-c2ccc(O)cc2)c1` [Compound 6e], the inhibition at 10 µM in assay [1] was 100%; in assay [3], 99%; in assay [4] it was 47%; in assay [5] it was 95%; in assay [6], 98%. Moreover, the results for the IC50 in assay [7] (read-out: IC50[μM] | PRMT3) and in assay [5] were 8.6 ± 0.58 µM and 0.23 ± 0.013 µM, respectively.

`Nc1ncnc2c1ncn2[C@@H]1O[C@H](CSCCNCc2cccc(-c3cncnc3)c2)[C@@H](O)[C@H]1O` [Compound 10g]: the inhibition at 10 µM came to 98% in assay [1]; 31% in assay [3]; 13% in assay [4]; 5% in assay [5]; 36% in assay [6]. In addition, the IC50 in assay [2] was 9.3 ± 1.1 µM.

Consider `Nc1ncnc2c1ncn2[C@@H]1O[C@H](CSCCNC(=O)NCc2ccccc2Br)[C@@H](O)[C@H]1O` [Compound 7h], for which the inhibition at 10 µM in assay [1] was 96%; in assay [3], -11%; in assay [4], 25%; in assay [5], 12%; in assay [6], -13%. For the same compound, the IC50 in assay [2] worked out at 0.021 ± 0.0028 µM.

For the compound `N=C(NCCCSC[C@H]1O[C@@H](n2cnc3c(N)ncnc32)[C@H](O)[C@@H]1O)Nc1cccc(-c2ccc(F)nc2)c1` [Compound 6n], the inhibition at 10 µM in assay [1] was found to be 100%; in assay [3], 99%; in assay [4] it was 61%; in assay [5], 91%; in assay [6] it was 100%. Besides, the figures for the IC50 in assay [7] (read-out: IC50[μM] | PRMT3) and in assay [5] were 4.2 ± 0.61 µM and 0.35 ± 0.073 µM, respectively.

In the case of `N=C(NCCCSC[C@H]1O[C@@H](n2cnc3c(N)ncnc32)[C@H](O)[C@@H]1O)Nc1cccc(-c2ccc3c(c2)OCCO3)c1` [Compound 6g], the inhibition at 10 µM was determined as 100% in assay [1]; 98% in assay [3]; 64% in assay [4]; 87% in assay [5]; 99% in assay [6]. Further, the IC50 turned out to be 3.2 ± 0.47 µM in assay [7] (read-out: IC50[μM] | PRMT3) and 0.21 ± 0.023 µM in assay [5].

On to `N=C(NCCCSC[C@H]1O[C@@H](n2cnc3c(N)ncnc32)[C@H](O)[C@@H]1O)Nc1cccc(-c2cccc(F)c2)c1` [Compound 6j], for which the inhibition at 10 µM was found to be 100% in assay [1]; 97% in assay [3]; 45% in assay [4]; 96% in assay [5]; 99% in assay [6]. In addition, the IC50 amounted to 4.7 ± 0.83 µM in assay [7] (read-out: IC50[μM] | PRMT3) and 0.26 ± 0.057 µM in assay [5].

The values above are taken from US20260306527A1, “PRMT INHIBITOR COMPOUNDS AND THE USES THEREOF” (Purdue Research Foundation, priority 2023, published 2026).
